For assay [1], the system named is liver mitochondria. In words: S-nitrosation of mitochondrial protein thiols (chemiluminescence SNO assay). In kind it is biochemical, rat. Particulars: 500 μM. The procedure:
FIG. 11 is a series of graphs showing S-nitrosation of mitochondrial thiols by MitoSNAP. (a) Time course of S-nitrosation of mitochondrial proteins by MitoSNAP. Liver mitochondria (1 mg protein) were incubated in 1 ml KCl buffer supplemented with rotenone and succinate in the presence of 5 μM MitoSNAP. At various times mitochondria were treated with 10 mM N-ethylmaleimide (NEM), isolated by centrifugation and the S-nitrosothiol content assessed. Data are of a typical experiment showing means±range of duplicate samples for each time point, each measured in duplicate. The experiment was repeated twice. (b) S-nitrosation of mitochondrial proteins by different concentrations of MitoSNAP and SNAP. Aliquots of liver mitochondria were incubated with the indicated concentrations of MitoSNAP or SNAP for […] in the presence or absence of 500 nM FCCP and then assessed for S-nitrosothiol content as in (a). For the +NEM sample, 10 mM NEM was added to the mitochondria and 1 min later 5 μM MitoSNAP was added and incubated for a further 2.5 min. Data are of a typical experiment showing means±range of duplicate samples for each time point, each measured in duplicate. The experiment was repeated twice. (c) S-nitrosation of cellular protein thiols by MitoSNAP. C2C12 cells were preincubated for 5 min in 2 ml cell culture medium containing either 20 μM FCCP or DMSO carrier, then 5 μM MitoSNAP or SNAP was added. After further incubation for 5 min at 37° C. in the dark, the medium was removed and the content of S-nitrosated proteins was measured. Data are means±range of the duplicate determinations. […] (d) S-nitrosation of a mitochondria-enriched cell subfraction. C2C12 cells were preincubated for 5 min in cell culture medium containing either 20 μM FCCP or dimethylsulfoxide (DMSO) carrier, then 5 μM MitoSNAP was added. After 5 min at 37° C. in the dark, the medium was removed and the cells were processed to isolate a mitochondria-enriched fraction and S-nitrosated protein was then determined Data are mean±sem of triplicate determinations (+MitoSNO1), or mean±range of duplicate determinations (+FCCP). (e & f) Visualisation of S-nitrosated mitochondrial proteins by copper/ascorbate-dependent labelling of thiols with a Cy3 fluorophore. Liver (e) or heart (f) mitochondria (1 mg protein) were incubated in 1 ml KCl buffer supplemented with rotenone and succinate in the presence of no additions, 10 μM MitoSNAP or 500 μM diamide for 5 min. S-nitrosated thiols were then selectively tagged with Cy3 maleimide and protein (10 μg) was then separated on a 12.5% SDS PAGE gel which was stained with coomassie blue and scanned for Cy3 fluorescence. The Cy3 fluorescence (SNO) and coomassie staining (coomassie) of each gel is shown.
FIG. 13 is a trace and graph showing limited S-nitrosation of mitochondria by DetaNONOate. […] Where indicated 500 μM DetaNONOate was added and the concentration of NO^• was measured over time, before 5 μM OxyHb was added. […] Then protein pellets were resuspended and processed for analysis of protein S-nitrosothiols. Control incubations in the presence of 10 mM NEM were also carried out. Data are means±range of two independent experiments each being the average of four mitochondrial incubations.
Nitrite, nitric oxide and S-nitrosothiol measurements. Nitrite was analyzed by the Griess assay (Molecular Probes). Nitric oxide was measured using an NO^• electrode (World Precision Instruments Ltd, UK) connected to an Apollo 4000 Free Radical Analyser. The electrode was inserted into a stirred, sealed 3 ml chamber with a Clark type O2 electrode (Rank Brothers, UK) built into its base and was thermostatted at 37° C. The NO^• electrode was calibrated by adding SNAP to argon-purged, saturated CuCl. OxyHb was prepared by reduction of bovine methemoglobin with sodium dithionite.

The test system of assay [2] is rat liver mitochondria. In words: Membrane potential-dependent uptake into isolated mitochondria (TPP-selective electrode). In kind it is biochemical. The procedure: FIG. 8 is a trace showing the uptake of MitoSNAP and MitoNAP by energized mitochondria measured using an ion-selective electrode. For (a) and (b) mitochondria (2 mg protein/ml) were incubated in KCl buffer supplemented with rotenone in a stirred 3 ml chamber thermostatted at 37° C. and shielded from ambient light. An electrode selective for the TPP cation was inserted and calibrated by five sequential 1 μM additions of MitoNAP (a) or MitoSNAP (b). Succinate (10 mM) was then added to energize the mitochondria, followed by the uncoupler FCCP (0.5 μM). Rapid uptake of MitoNAP by energized mitochondria was observed and this was reversed by abolishing the membrane potential with the uncoupler FCCP (a). Energised mitochondria also rapidly accumulated MitoSNAP (b). However, in contrast to MitoNAP, uncoupling apparently led to only partial release of the accumulated MitoSNAP (b). This apparent incomplete release of MitoSNAP on uncoupling is presumably because MitoSNAP is converted to MitoNAP within mitochondria and this generates a different response from the electrode.
Mitochondrial incubations were usually in KCl buffer (120 mM KCl, 10 mM HEPES, 1 mM EGTA, 100 μM N,N-bis(2-bis[carboxymethyl]aminoethyl) glycine (DTPA) and 10 μM neocuproine, pH 7.2) with 10 mM succinate and 4 μg/ml rotenone in the dark at 37° C., unless stated otherwise. An electrode selective for the TPP moiety of MitoSNAP and MitoNAP was made and used as described previously (Asin-Cayuela, J., Manas, A. R., James, A. M., Smith, R. A. & Murphy, M. P. Fine-tuning the hydrophobicity of a mitochondria-targeted antioxidant. FEBS Letts. 571, 9-16 (2004)). Respiration rates were measured in a Clark type O2 electrode (Rank Brothers, UK). To measure GSH and GSSG, mitochondria (1 mg protein/ml) were incubated with 0-10 μM MitoSNO1 or MitoNAP for 10 min, pelleted by centrifugation and the GSH and GSSG contents assessed by the recycling assay (Scarlett, J. L., Packer, M. A., Porteous, C. M. & Murphy, M. P. Alterations to glutathione and nicotinamide nucleotides during the mitochondrial permeability transition induced by peroxynitrite. Biochem. Pharmacol. 52, 1047-1055 (1996)). The measurement of exposed mitochondrial protein thiols is described below.
Rat liver mitochondria (1 mg protein/ml) in KCl buffer was incubated at 37° C. with 5 μM MitoSNO. 1 μM additions of MitoSNO were made sequentially before addition of 10 mM succinate. 200 nM FCCP was then added to uncouple the mitochondria. The concentrations of O2 and MitoSNO in solution were measured simultaneously using a Clark-type O2 electrode in combination with an ion-selective electrode for triphenylphosphonium cation (TPP^+). […] This can be seen in FIG. 3.
When succinate was added, the mitochondria started respiring and set up a Δψ, which caused a decrease in the MitoSNO concentration, as detected by the ion-selective electrode (FIG. 3). When the mitochondria were uncoupled by FCCP, a concomitant increase in the concentration of MitoSNO, or its derivatives, in the medium was detected by the ion-selective electrode. The amount of MitoSNO taken up into the mitochondria from the trace in FIG. 3 corresponds to ˜2.5 μM of the initial external concentration of 5 μM. Therefore 7.5 nmol MitoSNO have been taken up into 3 mg protein, and as the mitochondrial volume is ˜0.5 μl/mg protein (Brown, G. C. and Brand, M. D. Biochem J., 1985, 225, 399-405), the concentration of MitoSNO within mitochondria is ˜5 mM. This represents a 2000 fold concentration relative to the 2.5 μM present in the external medium, and is consistent with a Nernstian uptake of MitoSNO.

Assay [3] concerns HeLa cells. In words: Cell hypoxia experiment, extracellular pO2 by fluorescence quenching oximetry. Particulars: 1% O2, 30 min incubation, compared to untreated controls. The class given is cell-based. The procedure: FIG. 10 is a series of traces and graphs showing the effect of MitoSNAP on respiration in cells. (a-d) Jurkat cells (55×10^6 cells) were incubated in PBS supplemented with 25 mM Hepes pH 7.2 (NaOH), 1 mM sodium pyruvate, 10 μM neocuproine and 100 μM DTPA in the stirred 2.5 ml chamber of an oxygen electrode at 37° C. with 5 μM MitoSNAP (a), MitoNAP (b), SNAP (c) or MitoSNAP and FCCP (500 nM) (d). Where indicated 5 μM OxyHb was added. Traces show typical experiments that were repeated at least three times. Sections of the 02 electrode trace where OxyHb was added for (a) and (b) have been expanded 4-fold in the vertical dimension to facilitate inspection. […] Cellular pO2 values, measured by fluorescence quenching oximetry and expressed as mean±sd, are shown. […]
HeLa cells were seeded and grown to 100% confluence with 15 ml medium/dish on 165 cm^2 dishes. […] Extracellular pO2 measurements were taken by fluorescence quenching oximetry (Oxylite-2000; Oxford Optronix). […]
To evaluate the selective uptake of MitoSNAP by mitochondria within cells, the effect of MitoSNAP on respiration by Jurkat cells, a T lymphocyte cell line that grows in suspension, was measured using an O2 electrode (FIG. 10). […] Then the effects of a further 30 min incubation with MitoSNAP, MitoNAP or the mitochondrial inhibitor myxathiazol on the steady-state extracellular pO2 was assessed by fluorescence quenching oximetry (FIG. 10e).

We go through three molecules from US9045505B2, “Nitric oxide donors” (University of Otago, priority 2006, dated 2015).

Consider `NCCN(CCN)/[N+]([O-])=N/O` [Deta-NONOate, 3,3-bis(aminoethyl)-1-hydroxy-2-oxo-1-tri azene, reference compound], for which, in assay [1], the “NO concentration generated compared with 5 μM MitoSNAP” value was “five to ten-fold greater” and the “S-nitrosation less than that caused by 5 μM MitoSNAP” value is listed as ~30 fold. The “S-nitrosation of mitochondrial proteins” value in assay [1] (5 min) is listed as ~20 pmol SNO/mg protein.
`O=NSCCCC[P+](c1ccccc1)(c1ccccc1)c1ccccc1.[Br-]` [MitoSNO]: the “amount taken up into 3 mg protein” value in assay [2] (5 μM MitoSNO, succinate) was determined as 7.5 nmol. Further, in assay [2] (energized with 10 mM succinate, reversed by FCCP), the “uptake by isolated mitochondria” value was “taken up by isolated mitochondria”. Moreover, the concentration within mitochondria in assay [2] (mitochondrial volume ~0.5 μl/mg protein) is ~5 mM. In addition, the “amount taken up into the mitochondria, as part of the initial external concentration of 5 μM” value in assay [2] (rat liver mitochondria 1 mg protein/ml, 5 μM MitoSNO, succinate) was ~2.5 µM. Besides, the “effect on mitochondrial respiration” value in assay [2] (rat liver mitochondria, 5 μM MitoSNO) is “inhibited respiration by NO release”. Besides, in assay [2] (relative to 2.5 μM in the external medium), the “concentration relative to the external medium” value is on record as 2000 fold.
As for `CO/C(=C/C(N)=O)[C@H](C)[C@H](/C=C/c1csc(-c2csc([C@@H](C)/C=C/C=C/C(C)C)n2)n1)OC` [myxathiazol, reference compound], the “effect on steady-state extracellular pO2 during hypoxia” value in assay [3] is on record as “increased extracellular O2”.
